One test addresses CK1δ (Homo sapiens (Human), UniProt P48730). Kind of test: CK1δ kinase assay (Caliper LABCHIP electrophoretic separation of fluoresceinated peptide substrate and product). Type of test: biochemical. The following applies: 200 pM CK1δ, 50 μM ATP, 1.5 μM peptide substrate, 22 hours at room temperature; read-out: CK1δ (IC50). In short, it runs like this: (§1)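 Incubated for twenty-two hours at ambient temperature, then quenched with EDTA and analyzed by electrophoretic separation of unphosphorylated and phosphorylated peptide.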

The target in a further test is CK1ε (Homo sapiens (Human), UniProt P49674). Nature of the test: CK1ε kinase assay (Caliper LABCHIP electrophoretic separation of fluoresceinated peptide substrate and product). The note with it: 200 pM CK1ε, 50 μM ATP, 1.5 μM peptide substrate, 22 hours at room temperature; read-out: CK1ε (IC50). Format: biochemical. In short, it runs like this: as §1

Broadly, the IC50 is the concentration that gives 50% inhibition.

Sequence of CK1ε (P49674 whole entry): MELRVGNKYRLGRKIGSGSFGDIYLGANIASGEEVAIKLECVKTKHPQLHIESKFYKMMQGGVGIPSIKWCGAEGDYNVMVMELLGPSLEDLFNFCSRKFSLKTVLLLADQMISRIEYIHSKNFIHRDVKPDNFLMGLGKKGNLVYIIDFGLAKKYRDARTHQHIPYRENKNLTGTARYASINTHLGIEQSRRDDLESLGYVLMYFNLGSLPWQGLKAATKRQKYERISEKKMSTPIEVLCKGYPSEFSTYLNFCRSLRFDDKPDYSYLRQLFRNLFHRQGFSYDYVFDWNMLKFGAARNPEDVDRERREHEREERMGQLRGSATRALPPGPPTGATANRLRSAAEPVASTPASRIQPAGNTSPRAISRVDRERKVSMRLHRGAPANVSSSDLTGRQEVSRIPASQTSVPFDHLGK
Sequence of CK1δ (P48730 whole entry): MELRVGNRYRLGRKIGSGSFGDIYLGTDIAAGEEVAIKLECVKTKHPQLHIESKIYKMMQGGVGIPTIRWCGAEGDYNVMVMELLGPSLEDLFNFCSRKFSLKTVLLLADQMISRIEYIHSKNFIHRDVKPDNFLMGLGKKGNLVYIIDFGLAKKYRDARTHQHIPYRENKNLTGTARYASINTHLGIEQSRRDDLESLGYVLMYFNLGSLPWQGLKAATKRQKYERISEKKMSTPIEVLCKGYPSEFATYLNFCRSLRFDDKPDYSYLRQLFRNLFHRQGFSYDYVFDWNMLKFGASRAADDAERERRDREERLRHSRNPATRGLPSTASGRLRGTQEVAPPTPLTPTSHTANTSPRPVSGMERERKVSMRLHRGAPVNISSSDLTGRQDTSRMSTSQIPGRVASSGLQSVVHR

For `CS(=O)(=O)Nc1cccc(-c2nn3c(c2C(N)=O)CN(C(=O)Nc2ccc(C#N)cc2)CC3)c1` [Compound 274, N^5-(4-Cyanophenyl)-2-(3-(methylsulfonamido)phenyl)-6,7-dihydropyrazolo[1,5-a] pyrazine-3,5(4H)-dicarboxamide], the half-maximal inhibitory concentration (IC50) at CK1δ and at CK1ε was 100 to 2000 nM throughout.
Turning to `NC(=O)c1c(-c2cc(Cl)c(F)c(Cl)c2)nn2c1CN(C(=O)Nc1ccc(F)c(F)c1)CC2` [Compound 260, 2-(3,5-Dichloro-4-fluorophenyl)-N^5-(3,4-difluorophenyl)-6,7-dihydropyrazolo[1,5-a] pyrazine-3,5(4H)-dicarboxamide], the 50% inhibitory concentration (IC50) on CK1δ and at CK1ε was 0.01 to 10 nM each time.
Consider `CC(C)OC(=O)N1CCC(NC(=O)N2CCn3nc(-c4cccc(F)c4)c(C(N)=O)c3C2)CC1` [Compound 100, Isopropyl 4-(3-carbamoyl-2-(3-fluorophenyl)-4,5,6,7-tetrahydropyrazolo[1,5-a]pyrazine-5-carboxamido)piperidine-1-carboxylate], for which the IC50 at CK1δ and at CK1ε was 0.01 to 10 nM throughout.
Turning to `CC(C)(C)NC(=O)N1CCn2nc(-c3ccc(F)cc3F)c(C(N)=O)c2C1` [Compound 124, N^5-(tert-Butyl)-2-(2,4-difluorophenyl)-6,7-dihydropyrazolo[1,5-a]pyrazine-3,5(4H)-dicarboxamide], the half-maximal inhibitory concentration (IC50) at CK1δ and at CK1ε was 100 to 2000 nM throughout.
`Cc1ccc(NC(=O)N2CCn3nc(-c4ccc(F)c(Cl)c4)c(C(N)=O)c3C2)cc1C` [Compound 175, 2-(3-Chloro-4-fluorophenyl)-N^5-(3,4-dimethylphenyl)-6,7-dihydropyrazolo[1,5-a] pyrazine-3,5(4H)-dicarboxamide]: the IC50 at CK1δ and at CK1ε was 0.01 to 10 nM throughout.
Consider `COc1cc(NC(=O)N2CCn3nc(-c4cccc(F)c4)c(C(N)=O)c3C2)cc(OC)c1` [Compound 56, N^5-(3,5-Dimethoxyphenyl)-2-(3-fluorophenyl)-6,7-dihydropyrazolo[1,5-a]pyrazine-3,5(4H)-dicarboxamide], for which the half-inhibitory concentration (IC50) at CK1δ and on CK1ε was 0.01 to 10 nM in each case.
With `Cc1cc(-c2nn3c(c2C(N)=O)CN(C(=O)Nc2ccc(C#N)c(Cl)c2)CC3)ccc1F` [Compound 244, N^5-(3-Chloro-4-cyanophenyl)-2-(4-fluoro-3-methylphenyl)-6,7-dihydropyrazolo[1,5-a] pyrazine-3,5(4H)-dicarboxamide], the IC50 at CK1δ and at CK1ε was 0.01 to 10 nM each time.
For the compound `CC(C)(C)NC(=O)N1CCn2nc(-c3cc(Cl)cc(Cl)c3)c(C(N)=O)c2C1` [Compound 117, N^5-(tert-Butyl)-2-(3,5-dichlorophenyl)-6,7-dihydropyrazolo[1,5-a]pyrazine-3,5(4H)-dicarboxamide], the half-inhibitory concentration (IC50) at CK1δ and at CK1ε was 0.01 to 10 nM throughout.
`Cc1ccc(-c2nn3c(c2C(N)=O)CN(C(=O)Nc2ccc(C#N)c(F)c2)CC3)cc1Cl` [Compound 255, 2-(3-Chloro-4-methylphenyl)-N^5-(4-cyano-3-fluorophenyl)-6,7-dihydropyrazolo [1,5-a]pyrazine-3,5(4H)-dicarboxamide]: the half-maximal inhibitory concentration (IC50) on CK1δ and at CK1ε was 0.01 to 10 nM throughout.
`Cc1n[nH]c2c(Cl)cc(-c3nn4c(c3C(N)=O)CN(C(=O)Nc3ccc(C#N)c(Cl)c3)CC4)cc12` [compound 321]: the 50% inhibitory concentration (IC50) on CK1δ and on CK1ε was 0.01 to 10 nM throughout.
As to `Cc1cc(NC(=O)N2CCn3nc(-c4cccc(F)c4)c(C(N)=O)c3C2)ccc1C#N` [Compound A55, N^5-(4-Cyano-3-methylphenyl)-2-(3-fluorophenyl)-6,7-dihydropyrazolo[1,5-a]pyrazine-3,5(4H)-dicarboxamide], the half-inhibitory concentration (IC50) at CK1δ and on CK1ε was 0.01 to 10 nM in each case.
For `CCOc1cc(Cl)cc(-c2nn3c(c2C(N)=O)CN(C(=O)Nc2ccc(C#N)c(Cl)c2)CC3)c1` [Compound A61, N^5-(3-Chloro-4-cyanophenyl)-2-(3-chloro-5-ethoxyphenyl)-6,7-dihydropyrazolo[1,5-a]pyrazine-3,5(4H)-dicarboxamide], the IC50 at CK1δ and at CK1ε was 0.01 to 10 nM throughout.
For `NC(=O)c1c(-c2cccc(F)c2)nn2c1CN(C(=O)Nc1ccc(Cl)nc1)CC2` [Compound 85, N^5-(6-Chloropyridin-3-yl)-2-(3-fluorophenyl)-6,7-dihydropyrazolo[1,5-a]pyrazine-3,5(4H)-dicarboxamide], the concentration for half-maximal inhibition (IC50) at CK1δ and on CK1ε was 0.01 to 10 nM each time.
On to “N-(tert-Butyl)-2-(3,4-dichlorophenyl)-7-methyl-6,7-dihydropyrazolo[1,5-a]pyrazine-3,5(4H)-dicarboxamide [Compound A32]”, for which the 50% inhibitory concentration (IC50) on CK1δ and on CK1ε was 0.01 to 10 nM throughout.
Take `Cc1nc2cc(-c3nn4c(c3C(N)=O)CN(C(=O)Nc3ccc(C#N)c(F)c3)CC4)cc(Cl)c2o1` [Compound 314, 2-(7-Chloro-2-methylbenzo[d]oxazol-5-yl)-N^5-(4-cyano-3-fluorophenyl)-6,7-dihydropyrazolo[1,5-a]pyrazine-3,5(4H)-dicarboxamide]: the IC50 on CK1δ and at CK1ε was 0.01 to 10 nM in each case.
For `N#Cc1ccc(NC(=O)N2CCn3nc(-c4cnc(F)c(Cl)c4)c(C(N)=O)c3C2)cc1` [Compound 293, 2-(5-Chloro-6-fluoropyridin-3-yl)-N^5-(4-cyanophenyl)-6,7-dihydropyrazolo[1,5-a] pyrazine-3,5(4H)-dicarboxamide], the IC50 at CK1δ and at CK1ε was 0.01 to 10 nM each time.
Consider `NC(=O)c1c(-c2cccc(F)c2)nn2c1CN(C(=O)Nc1ccc(Cl)c(Cl)c1)CC2` [Compound 49, N^5-(3,4-Dichlorophenyl)-2-(3-fluorophenyl)-6,7-dihydropyrazolo[1,5-a]pyrazine-3,5(4H)-dicarboxamide], for which the half-maximal inhibitory concentration (IC50) on CK1δ and on CK1ε was 0.01 to 10 nM in each case.
Consider `Cc1cc(F)cc(-c2nn3c(c2C(N)=O)CN(C(=O)Nc2ccc(C#N)c(F)c2)CC3)c1` [Compound 224, N^5-(4-Cyano-3-fluorophenyl)-2-(3-fluoro-5-methylphenyl)-6,7-dihydropyrazolo[1,5-a] pyrazine-3,5(4H)-dicarboxamide], for which the IC50 at CK1δ and at CK1ε was 0.01 to 10 nM throughout.
Consider `NC(=O)c1c(-c2cccc(Cl)c2)nn2c1CN(C(=O)Nc1ccc(N3CCCCC3)cc1)C[C@H]2CF` [Compound A10, (S)-2-(3-Chlorophenyl)-7-(fluoromethyl)-N^5-(4-(piperidin-1-yl)phenyl)-6,7-dihydropyrazolo[1,5-a]pyrazine-3,5(4H)-dicarboxamide], for which the half-inhibitory concentration (IC50) on CK1δ and on CK1ε was 0.01 to 10 nM in each case.
Take `Cc1ccc(-c2nn3c(c2C(N)=O)CN(C(=O)Nc2ccc4c(c2)OC(F)(F)O4)CC3)cc1Cl` [Compound 250, 2-(3-Chloro-4-methylphenyl)-N^5-(2,2-difluorobenzo[d][1,3]dioxol-5-yl)-6,7-dihydropyrazolo[1,5-a] pyrazine-3,5(4H)-dicarboxamide]: the IC50 on CK1δ and at CK1ε was 0.01 to 10 nM in each case.
As for `COc1cc(-c2nn3c(c2C(N)=O)CN(C(=O)Nc2ccc(C#N)cc2)CC3)ccc1F` [Compound 280, N^5-(4-Cyanophenyl)-2-(4-fluoro-3-methoxyphenyl)-6,7-dihydropyrazolo[1,5-a] pyrazine-3,5(4H)-dicarboxamide], the concentration for half-maximal inhibition (IC50) on CK1δ and at CK1ε was 0.01 to 10 nM each time.
On to `NC(=O)c1c(-c2ccc(F)c(Cl)c2)nn2c1CN(C(=O)Nc1ccc(F)c(F)c1)CC2` [Compound 183, 2-(3-Chloro-4-fluorophenyl)-N^5-(3,4-difluorophenyl)-6,7-dihydropyrazolo[1,5-a] pyrazine-3,5(4H)-dicarboxamide], for which the IC50 on CK1δ and on CK1ε was 0.01 to 10 nM each time.
For `N#Cc1ccc(NC(=O)N2CCn3nc(-c4ccc(F)c(Cl)c4)c(C(N)=O)c3C2)cc1C1CC1` [Compound A50, 2-(3-Chloro-4-fluorophenyl)-N^5-(4-cyano-3-cyclopropylphenyl)-6,7-dihydropyrazolo[1,5-a]pyrazine-3,5(4H)-dicarboxamide], the IC50 on CK1δ and at CK1ε was 0.01 to 10 nM throughout.
As for `Cc1nn(C)c2c(Cl)cc(-c3nn4c(c3C(N)=O)CN(C(=O)Nc3ccc(C#N)cc3)CC4)cc12` [Compound 322, 2-(7-Chloro-1,3-dimethyl-1H-indazol-5-yl)-N-(4-cyanophenyl)-6,7-dihydropyrazolo[1,5-a]pyrazine-3,5(4H)-dicarboxamide], the IC50 on CK1δ and at CK1ε was 0.01 to 10 nM throughout.
Take `Cc1cc(-c2nn3c(c2C(N)=O)CN(C(=O)Nc2ccc4c(c2)CS(=O)(=O)C4)CC3)ccc1F` [Compound 246, N^5-(2,2-Dioxido-1,3-dihydrobenzo[c]thiophen-5-yl)-2-(4-fluoro-3-methylphenyl)-6,7-dihydropyrazolo[1,5-a] pyrazine-3,5(4H)-dicarboxamide]: the IC50 on CK1δ and at CK1ε was 0.01 to 10 nM in each case.
As for `N#Cc1ccc(NC(=O)N2CCn3nc(-c4ccc5c(c4)OCO5)c(C(N)=O)c3C2)cc1` [Compound 277, 2-(Benzo[d][1,3]dioxol-5-yl)-N^5-(4-cyanophenyl)-6,7-dihydropyrazolo[1,5-a] pyrazine-3,5(4H)-dicarboxamide], the IC50 at CK1δ fell in the range of 10 to 100 nM; on CK1ε, 0.01 to 10 nM.
As for `NC(=O)c1c(-c2cccc(F)c2)nn2c1CN(C(=O)NC13CC4CC(O)(CC(F)(C4)C1)C3)CC2` (stereo not drawn) [Compound 94, N^5-(3-Fluoro-5-hydroxyadamantan-1-yl)-2-(3-fluorophenyl)-6,7-dihydropyrazolo[1,5-a]pyrazine-3,5(4H)-dicarboxamide], the half-inhibitory concentration (IC50) at CK1δ and at CK1ε was 0.01 to 10 nM each time.

The values above are taken from US9598423B2 (BRISTOL-MYERS SQUIBB COMPANY, priority 2013, dated 2017).
